Reference: the supplement of paper PMC12370961

How the values were obtained:
Assay in all cases: differential drug sensitivity score (dDSS) relative to sarcoma reference cohort mean DSS (DSS units (0-100 scale difference)); higher = more selective sensitivity than reference sarcomas
Details in all cases: exposure time: 72 h; concentration range: 10-10000 nM
CDS-ZH003 = tested on: CDS-ZH003 (patient-derived CIC-DUX4 sarcoma tumoroid)
Procedure: (§1)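 Drug response profiling of patient-derived Ewing sarcoma and CIC::DUX4 sarcoma tumoroid models (or cells tested directly after isolation from the tumor, 'direct'). The DSS is the normalised AUC (0-100); dDSS is the sample DSS minus the mean DSS of a 34-sarcoma reference cohort profiled in the same lab.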

ES-ZH002 = tested on: ES-ZH002 (patient-derived Ewing sarcoma tumoroid)
Procedure: as §1

CDS-ZH001-2 = tested on: CDS-ZH001-2 (patient-derived CIC-DUX4 sarcoma tumoroid)
Procedure: as §1

ES-ZH001 = tested on: ES-ZH001 (patient-derived Ewing sarcoma tumoroid)
Procedure: as §1

CDS-ZH001 = tested on: CDS-ZH001 (patient-derived CIC-DUX4 sarcoma tumoroid)
Procedure: as §1

ES-ZH004 = tested on: ES-ZH004 (patient-derived Ewing sarcoma tumoroid)
Procedure: as §1

ES-ZH016 = tested on: ES-ZH016 (patient-derived Ewing sarcoma tumoroid)
Procedure: as §1

ES-ZH008 = tested on: ES-ZH008 (patient-derived Ewing sarcoma tumoroid)
Procedure: as §1

CDS-ZH002 direct = tested on: CDS-ZH002 direct (CIC-DUX4 sarcoma cells right after isolation)
Procedure: as §1

ES-ZH016 direct = tested on: ES-ZH016 direct (Ewing sarcoma cells right after isolation)
Procedure: as §1

ES-ZH009 = tested on: ES-ZH009 (patient-derived Ewing sarcoma tumoroid)
Procedure: as §1

ES-ZH007 = tested on: ES-ZH007 (patient-derived Ewing sarcoma tumoroid)
Procedure: as §1

CDS-ZH002 = tested on: CDS-ZH002 (patient-derived CIC-DUX4 sarcoma tumoroid)
Procedure: as §1

| SMILES | differential drug sensitivity score (CDS-ZH003) | differential drug sensitivity score (ES-ZH002) | differential drug sensitivity score (CDS-ZH001-2) | differential drug sensitivity score (ES-ZH001) | differential drug sensitivity score (CDS-ZH001) | differential drug sensitivity score (ES-ZH004) | differential drug sensitivity score (ES-ZH016) | differential drug sensitivity score (ES-ZH008) | differential drug sensitivity score (CDS-ZH002 direct) | differential drug sensitivity score (ES-ZH016 direct) | differential drug sensitivity score (ES-ZH009) | differential drug sensitivity score (ES-ZH007) | differential drug sensitivity score (CDS-ZH002) |
| --- | --- | --- | --- | --- | --- | --- | --- | --- | --- | --- | --- | --- | --- |
| Nc1ncc(-c2nc(N3CCOCC3)nc(N3CCOCC3)n2)c(C(F)F)n1 [PQR514] | -0.5 | 15.5 | 7 | -3.3 | 3.9 | 0.8 | 5 | 10.1 | -2.6 | 5.4 | 7.1 | -1.3 | -6.5 |
| CC[C@H](NC(=O)[C@H](C)NC)C(=O)N1C[C@@H](O)C[C@H]1Cc1c(-c2[nH]c3cc(F)ccc3c2C[C@@H]2C[C@H](O)CN2C(=O)[C@H](CC)NC(=O)[C@H](C)NC)[nH]c2cc(F)ccc12 [Birinapant] | 13 | -0.4 | 16.6 | -0.8 | 21.9 | -2.3 | -1.3 | -0.3 | 4.6 | 4.6 | 5.7 | -0.4 | -1.8 |
| CC(=O)Nc1cccc(-n2c(=O)n(C3CC3)c(=O)c3c(Nc4ccc(I)cc4F)n(C)c(=O)c(C)c32)c1 [Trametinib] | 3.2 | 9.5 | -3.5 | 3.2 | -3.5 | 1.5 | -3.5 | 4.1 | -3.5 | -3.5 | -3.5 | -3.5 | -3.5 |
| CCn1c(-c2nonc2N)nc2cnc(Oc3cccc(NC(=O)c4ccc(OCCN5CCOCC5)cc4)c3)cc21 | -1.3 | 4.5 | 1.1 | 1.8 | -2.7 | -2.6 | 2 | -2.1 | -2.4 | -1.7 | 6.5 | -2.1 | -2.9 |
| CCS(=O)(=O)N1CCC([C@@H](C)n2c(C)c(C(=O)NCc3c(OC)cc(C)[nH]c3=O)c3ccccc32)CC1 [CPI169] | -0.3 | -0.4 | -0.4 | -0.4 | -0.4 | -0.4 | -0.4 | -0.4 | -0.4 | 3.3 | -0.3 | -0.4 | -0.4 |
| CCCCN(Cc1ccc(C(=O)NO)cc1)C(=O)Nc1ccccc1 [Nexturastat A] | 2.1 | 0.9 | 5.3 | 2.9 | 0.8 | -0.7 | -1.3 | 5 | 2.4 | 4.4 | 0.5 | 2.1 | -0.4 |
| c1cn2cc(-c3ccc4cn[nH]c4c3)nc(Nc3ccc(N4CCOCC4)cc3)c2n1 [Entospletinib] | 0 | -2.1 | 10.6 | -2.1 | -2.1 | -2.1 | -2.1 | -2.1 | -1.8 | 13.1 | -2.1 | -2.1 | 13.4 |
| Nc1cc(C(F)F)c(-c2nc(N3C4CCC3COC4)nc(N3C4CCC3COC4)n2)cn1 [PQR620] | 5 | 10.2 | 0.8 | 0.1 | 1.5 | 5.3 | -0.4 | 4.4 | -3.3 | -3.2 | 2.8 | 2 | -3.2 |
| N#Cc1ccc2[nH]c(O)c(-c3ccc(CN4CCOCC4)cn3)c2c1 [AZD1080] | -0.1 | -0.1 | -0.1 | -0.1 | -0.1 | 0.6 | -0.1 | 1 | -0.1 | 0.2 | 0 | 0.4 | -0.1 |
| C=CC(=O)N1CCN(CCCn2c(=O)c(-c3c(Cl)c(OC)cc(OC)c3Cl)cc3cnc(NC)nc32)CC1 [PRN1371] | -11.5 | 15.7 | -3.3 | 11.9 | -9.1 | 15.6 | 2.4 | 21.1 | -4.8 | 11.1 | -0.7 | 5.7 | -10.8 |
| CC[C@]1(O)C[C@@H]2CN(CCc3c([nH]c4ccccc34)[C@@](C(=O)OC)(c3cc4c(cc3OC)N(C)[C@H]3[C@@](O)(C(=O)OC)[C@H](OC(C)=O)[C@]5(CC)C=CCN6CC[C@]43[C@@H]65)C2)C1 [Vinblastine] | -9.2 | 22.2 | 2.2 | 22.3 | 9.1 | 12.3 | 16.2 | 12.7 | 8.4 | 10.2 | 23.7 | 13.2 | 13.2 |
| CC(C)(O)CNc1nc(Nc2ccnc(C(F)(F)F)c2)nc(-c2cccc(C(F)(F)F)n2)n1 [Enasidenib] | -1.3 | -1.3 | -1.3 | -1.3 | -1.3 | -0.7 | -1.3 | -1.3 | -1.3 | -1.3 | -1.3 | -1 | -1.3 |
| CN1CCN(c2ccc(C(=O)Nc3n[nH]c4ccc(Cc5cc(F)cc(F)c5)cc34)c(NC3CCOCC3)c2)CC1 [Entrectinib] | -4.3 | 8.1 | 7.7 | 3 | 2 | 12.9 | 2.3 | 6 | -2.3 | 10.8 | 2 | -1.1 | 0.2 |
| Cc1nn(C)c(COc2ccc(N3CCN(S(=O)(=O)N(C)C)CC3)cc2)c1-c1cccc2c(CCCOc3cccc4ccccc34)c(C(=O)O)n(CCN3CCOCC3)c12 | 0 | -0.4 | -0.8 | -0.8 | 4.4 | -0.8 | -0.8 | -0.8 | -0.8 | -0.8 | -0.8 | -0.8 | -0.8 |
| COc1cc(OC)c2c(=O)[nH]c(-c3cc(C)c(OCCO)c(C)c3)nc2c1 [Apabetalone] | 3.6 | 0.6 | -0.7 | -0.7 | -0.6 | 0.6 | -0.7 | 3.2 | -0.7 | -0.7 | 0.5 | -0.7 | -0.7 |
| O=c1cc(-c2cccc3c2Sc2ccccc2S3)oc(N2CCOCC2)c1 | -1.3 | -1.3 | 2.9 | -1.3 | 0 | -1.3 | -1.3 | -1.3 | 3.7 | 13.8 | -0.4 | -1.3 | -0.2 |
| C=C(F)C(=O)N1CCN(c2nc(OC[C@@H]3CCCN3C)nc3c2CCN(c2cccc4cccc(Cl)c24)C3)C[C@@H]1CC#N [MRTX849] | 3.5 | 1.1 | 0.7 | -0.9 | 4.8 | 0.1 | -1.7 | 1.6 | 0.7 | -1.7 | 1.8 | 2 | 1.5 |
| CN1CC[C@@H](NC(=O)Nc2ccc(C#N)cc2)C[C@@H]1c1nc2ccccc2[nH]1 [Glasdegib] | 2.5 | 1.3 | -0.8 | -0.8 | -0.8 | -0.8 | -0.8 | -0.8 | -0.8 | -0.8 | -0.8 | -0.8 | -0.8 |
| CNCc1ccc(-c2[nH]c3cc(F)cc4c3c2CCNC4=O)cc1 [Rucaparib] | -4.1 | 17.9 | 7.1 | 6.7 | -4 | 5.6 | 4.9 | 11.5 | -0.8 | 21 | 1.4 | 4.3 | -4 |
| C[C@H]1CNC(=O)c2cnn3ccc(nc23)N[C@H](C)c2cc(F)ccc2O1 [Repotrectinib] | -1.4 | 5 | 6.2 | 0.2 | -0.3 | 2.9 | 2.1 | 10.8 | 0.2 | 7.7 | 1.8 | -1.3 | -0.4 |
| COc1cccc(-c2cc(F)ccc2[C@H]2Cc3nc(N)nc(C)c3C(=O)N2)n1 [HSP-990] | 1.3 | 8.8 | 0.3 | 3.8 | 1.4 | -0.8 | 3.4 | 7.1 | -4 | 4.9 | 6 | 1.2 | -9.2 |
| CC[C@@]1(O)C(=O)OCc2c1cc1n(c2=O)Cc2cc3c(CN(C)C)c(O)ccc3nc2-1 [Topotecan] | 8 | 20.1 | 3.4 | 19.4 | 5.3 | 16.4 | 19.6 | 10.8 | -4.9 | 7.3 | 15.8 | 19.4 | -2.7 |
| CCc1nc(C(N)=O)c(Nc2ccc(N3CCC(N4CCN(C)CC4)CC3)c(OC)c2)nc1NC1CCOCC1 [Gilteritinib] | 10.4 | 16 | 8 | 1.1 | 7.4 | 4.2 | 0.8 | 10.2 | 1.6 | 9.4 | 10.1 | 4.2 | -1.4 |
| O=P1(NCCCl)OCCCN1CCCl (stereo not drawn) [Ifosfamide] | -1 | 5.4 | -1 | 0.6 | -1 | 5.5 | -1 | 1.6 | -1 | -1 | -1 | -1 | -1 |
| CN1CC[C@H](c2c(O)cc(O)c3c(=O)cc(-c4ccccc4Cl)oc23)[C@H](O)C1 [Alvocidib] | 8 | 7.1 | 5.7 | 2.6 | 8.5 | 6.6 | 6.1 | 6.3 | 8.9 | 3.7 | 9 | 7.8 | 5.8 |
| CN1C(=O)N[C@H](Cc2c[nH]c3c(Cl)cccc23)C1=O [Necrostatin-2] | -2.7 | 2.2 | 8.4 | -1 | -2.7 | 7.5 | -1.3 | 13.8 | -2.5 | 15.6 | -2.7 | -2.7 | -1.9 |
